Source: patent US20120196748A1, “PESTICIDAL COMPOSITION” (SYNGENTA LIMITED, priority 2009, published 2012)

Columns and labels:
[1] = Soil mobility of herbicides, uptake by concentric PDMS rings; type: physicochemical; conditions: 7 days after application, sandy loam soil, moisture content 26.3%
Method: The soil mobility of various herbicides were examined in sandy loam soil with a moisture content of 26.3%. Three concentric PDMS (polydimethyl siloxane) rings having diameters of 2, 4 and 6 cm, respectively were placed in the soil at three different depths at 0.5 cm apart. 1 ml of a herbicide solution is injected in the center of the rings. The uptake of the herbicide by the rings were analysed 7 days after herbicide application.

weeds = assay: Field weed control by clomazone-treated wheat seeds; type: in vivo; conditions: field at Möhlin, 64 days after planting
Method: Two different types of wheat seeds were used, i.e. Match and Steme. The treated wheat seeds were sown in the field (at Möhlin in Swtzerland). 64 days after planting the control of weeds was analysed.

[2] = uptake by PDMS ring of 2 cm diameter
[3] = uptake by PDMS ring of 4 cm diameter

| SMILES | Percentage of totally applied herbicide (%) [1, 2] [%] | Weed control (%) (weeds; wheat seed type Match) | Weed control (%) (weeds; wheat seed type Steme) | Percentage of totally applied herbicide (%) [1, 3] [%] | Percentage of totally applied herbicide (%) ([1]; uptake by PDMS ring of 6 cm diameter) |
| --- | --- | --- | --- | --- | --- |
| CC1(C)CON(Cc2ccccc2Cl)C1=O [Clomazone] | 0.36 | 95 | 95 |  |  |
| CCCN(CCC)C(=O)SCC [EPTC] | 12.70 |  |  | 5.56 | 0.97 |
| CCc1cccc(C)c1N(C(=O)CCl)[C@@H](C)COC [S-metalochlor] | 0.11 |  |  |  |  |
| CCCN(CCC)c1c([N+](=O)[O-])cc(C(F)(F)F)cc1[N+](=O)[O-] [Trifluralin] | 0.62 |  |  | 0.02 |  |
| CCOCN(C(=O)CCl)c1c(C)cccc1CC [Acetochlor] | 0.14 |  |  |  |  |
